In ChEMBL document CHEMBL5729293, “Inhibitors of KEAP1-Nrf2 protein-protein interaction” (2022) one finds Kd data, which are given here for 26 compounds.

Some results are limits rather than exact numbers.

A short description of this assay: Fluorescence Based Assay: The details of the KEAP1 KELCH ThermoFluor® Assay Construct are as follows: Kelch domain of human KEAP 1 (321-624 aa) was used in the assay. The protein was expressed in E. coli with 6His tag that was cleaved prior to receipt for use.ThermoFluor® experiments were carried out using instruments owned by Janssen Research and Discovery, L.L.C. through its acquisition of 3-Dimensional Pharmaceuticals, Inc. 1,8-ANS (Invitrogen) was used as a fluorescent dye. Protein (KEAP Kelch) and compound solutions were dispensed into black 384-well polypropylene PCR microplates (Abgene) and overlayed with silicone oil (1 μL, Fluka, type DC 200) to prevent evaporation.Reference wells contained KEAP Kelch without compounds, and the assay conditions were as follows: 1.1 μM (0.037mg/mL) KEAP Kelch, 80 μM 1,8-ANS, 25 mM PIPES, pH 7.0, 100 mM NaCl, 0.002% Tween-20. (DSF heats the sample and reads unfolding from a dye or from intrinsic fluorescence.)
The term Kd denotes a measure of binding affinity in units of concentration. Lower therefore signals tighter binding. `Cc1ccc([C@@H](CC(=O)O)c2ccn3c(C(F)F)nnc3c2C)cc1CN1CC2(CC2)Oc2ncccc2S1(=O)=O` gave a Kd of under 1 nM.
The value for `CCc1nnc2c(C)c(C(CC(=O)O)c3ccc(C)c(CN4C[C@H]5CCCN5c5ncccc5S4(=O)=O)c3)ccn12` (stereo partly specified) was under 1 nM; that for `Cc1ccc(C(c2ccn3c(C(F)F)nnc3c2C)C(C)(C)C(=O)O)cc1CN1CC2(CCOCC2)Oc2ncccc2S1(=O)=O` (stereo unspecified) was under 1 nM; that for `Cc1ccc(C(CC(=O)O)c2ccn3c(C(F)(F)F)nnc3c2C)nc1CN1CC2(COC2)Oc2ccccc2S1(=O)=O` (stereo unspecified) was under 1 nM.
The value for `Cc1ccc([C@@H](CC(=O)O)c2ccc3c(nnn3C3CC3)c2C)cc1CN1C[C@]2(C)CCCN2c2ncccc2S1(=O)=O` was under 1 nM; that for `Cc1ccc([C@@H](c2ccn3c(C(F)F)nnc3c2C)C(C)(C)C(=O)O)cc1CN1CC2(CCOCC2)Oc2nc(OCCN3CCOCC3)ccc2S1(=O)=O` was under 1 nM.
The value for `Cc1ccc([C@@H](CC(=O)O)c2ccn3c(C(F)(F)F)nnc3c2C)nc1CN1C[C@@H]2CCCCN2c2ncc(F)cc2S1(=O)=O` was under 1 nM; that for `Cc1ccc([C@H](CC(=O)O)c2ccn3c(C(F)(F)F)nnc3c2C)cc1CN1C[C@H]2COCCN2c2ncc(Cl)cc2S1(=O)=O` was under 1 nM.
Compound `Cc1ccc([C@H](c2ccn3c(C(F)(F)F)nnc3c2C)C(C)(C)C(=O)O)cc1CN1C[C@@H]2CCCCN2c2ncc(C#N)cc2S1(=O)=O` gave a Kd of under 1 nM.
`Cc1ccc([C@@H](c2ccn3c(C(F)(F)F)nnc3c2C)C(C)(C)C(=O)O)cc1CN1CC2(CCOCC2)Oc2ncccc2S1(=O)=O` yielded a Kd of under 1 nM.
For `Cc1ccc([C@H](c2ccn3c(C(F)(F)F)nnc3c2C)C(C)(C)C(=O)O)cc1CN1CC2(CCOCC2)Oc2nc(N[C@@H](C)CCO)c(C)cc2S1(=O)=O` the value was under 1 nM; for `Cc1ccc([C@H](CC(=O)O)c2ccn3c(C(F)(F)F)nnc3c2C)cc1CN1CC2(CC2)Oc2ncc(C#N)cc2S1(=O)=O`, under 1 nM; for `Cc1c([C@@H](CC(=O)O)c2ccc(Cl)c(CN3CC4CCCCN4c4ncccc4S3(=O)=O)c2)ccn2c(C(F)(F)F)nnc12` (stereo partly specified), under 1 nM.
For `Cc1ccc([C@@H](c2ccc3c(nnn3CC3CC3)c2C)C(C)(C)C(=O)O)nc1CN1CC2(CCOCC2)Oc2nc(OCCN3CCOCC3)ccc2S1(=O)=O` the value was under 1 nM; for `Cc1ccc([C@@H](CC(=O)O)c2ccc3c(nnn3CC3CC3)c2C(F)F)cc1CN1C[C@H]2CCCCN2c2ncccc2S1(=O)=O` (single isomer, unassigned), under 1 nM; for `Cc1cnc2c(c1)S(=O)(=O)N(Cc1cc([C@H](c3cc4cc(C)nnc4n3C)C(C)(C)C(=O)O)ccc1C)CC1(CC1)O2`, under 1 nM.
For the compound `Cc1ccc([C@@H](c2ccn3c(C(F)(F)F)nnc3c2C)C(C)(C)C(=O)O)cc1CN1CC2(COC2)Oc2ncccc2S1(=O)=O`, the dissociation constant Kd is under 1 nM.
The value for `Cc1ccc([C@H](CC(=O)O)c2cc(OC3CC3)c3c(c2)nnn3C)cc1CN1C[C@H]2CCCCN2c2ncccc2S1(=O)=O` was under 1 nM; that for `Cc1ccc([C@H](c2ccn3c(C(F)(F)F)nnc3c2C)C(C)(C)C(=O)O)cc1CN1CC2(CCOCC2)Oc2nc(OCCN3CCNCC3)ccc2S1(=O)=O` was under 1 nM; that for `CC[C@@H]1CN(Cc2cc([C@@H](CC(=O)O)c3ccn4c(C(F)(F)F)nnc4c3C)ccc2C)S(=O)(=O)c2cccnc2O1` was under 1 nM.
The value for `Cc1ccc([C@H](c2ccn3c(C(F)(F)F)nnc3c2C)C(C)(C)C(=O)O)cc1CN1CC2(CCOCC2)Oc2nc(N[C@H](C)C(C)(C)O)c(C)cc2S1(=O)=O` was under 1 nM; that for `Cc1cnc2c(c1)S(=O)(=O)N(Cc1cc([C@H](c3ccc4c(nnn4C4CC4)c3C)C(C)(C)C(=O)O)cnc1C)CC1(CCOCC1)O2` was under 1 nM; that for `Cc1ccc([C@H](CC(=O)O)c2ccn3c(C(F)F)nnc3c2C)cc1CN1CC2(CC2)Oc2ncc(F)cc2S1(=O)=O` was under 1 nM.
The compound `Cc1ccc([C@@H](CC(=O)O)c2cc(OC(F)F)c3c(c2)nnn3C)cc1CN1C[C@H]2CCCN2c2ncccc2S1(=O)=O` registered an equilibrium dissociation constant (Kd) of under 1 nM.
For `Cc1ccc(C(CC(=O)O)c2ccn3c(C(F)(F)F)nnc3c2C)cc1CN1CC2CCC(F)(F)CN2c2ncccc2S1(=O)=O` (stereo unspecified) the value was under 1 nM; for `Cc1ccc([C@H](CC(=O)O)c2ccn3c(C(F)(F)F)nnc3c2C)nc1CN1C[C@@H]2CCCCN2c2ncc(F)cc2S1(=O)=O`, under 1 nM.
